# Test system: TNF-α
# Test: cytokine (TNF-α) levels in the colonic homogenate, TNBS-induced colitis model
# Assay type: in vivo, C57B16j mice
# Conditions: at a pH value of 5.2; FIG. 2B
# Experimental: Colitis was induced in C57B16j mice by 2,4,6-trinitrobenzene sulfonic acid (TNBS). TNBS induction was made at 0 and 4 days. BA 10^8/mL BA, EF 10^9/mL EF, and calciferol at […] was administered as oral gavage on alternative days from day 0 to day 14.
# A comparative evaluation of cytokine (TNF-α) levels in the colonic homogenate of different mice groups from the TNBS-induced colitis model was performed. TNF-α was quantified after 14 days of the start of the experiment. All data were collected from three individual experiments and pooled and expressed as mean ±SD (p<0.05). The effect of BA and EF loads on the pro-inflammatory marker (TNF-α) in TNBS-induced colitis mice is illustrated in FIGS. 1A-1B (values are expressed in pg/mL).
# Disease index and bleeding indicated degree of recovery of the disease in the group treated with the composition. […] TNF-α was quantified after 14 days of the experiment. The values are expressed in pg/mL. All data were collected from three individual experiments and pooled and expressed as mean ±SD (p<0.05). *p<0.05 represents significance.
structure (smiles),measurement,value
C=C1CC[C@H](O)C/C1=C/C=C1\CCC[C@]2(C)[C@@H]([C@H](C)/C=C/[C@H](C)C(C)C)CC[C@@H]12 [calciferol],most effective concentration of calciferol in the composition,5 µM
